From PubChem BioAssay (NCI)
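Values below derive from 48-hour exposures of cells grown in 96-well plates, with endpoints linearly interpolated between the two concentrations bracketing the appropriate inhibition level. The concentration for 50% growth inhibition is given as GI50. TGI: concentration producing complete growth inhibition.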

Legend:
Test in all cases: NCI-60 cell line screen, 48 h
A549 NSCLC = tested on: A549 NSCLC
HL-60(TB) leukemia = tested on: HL-60(TB) leukemia
HOP-92 NSCLC = tested on: HOP-92 NSCLC
KM12 colon = tested on: KM12 colon
LOX IMVI melanoma = tested on: LOX IMVI melanoma
M14 melanoma = tested on: M14 melanoma
MDA-MB-231 breast = tested on: MDA-MB-231 breast
RXF 393 renal = tested on: RXF 393 renal
SF-268 CNS = tested on: SF-268 CNS
SNB-75 CNS = tested on: SNB-75 CNS

SMILES | TGI (A549 NSCLC) | TGI (HL-60(TB) leukemia) | TGI (HOP-92 NSCLC) | TGI (KM12 colon) | TGI (LOX IMVI melanoma) | TGI (M14 melanoma) | TGI (MDA-MB-231 breast) | TGI (RXF 393 renal) | TGI (SF-268 CNS) | TGI (SNB-75 CNS) | GI50 (A549 NSCLC) | GI50 (HL-60(TB) leukemia) | GI50 (HOP-92 NSCLC) | GI50 (KM12 colon) | GI50 (LOX IMVI melanoma) | GI50 (M14 melanoma) | GI50 (MDA-MB-231 breast) | GI50 (RXF 393 renal) | GI50 (SF-268 CNS) | GI50 (SNB-75 CNS)
O=c1c2ccccc2nc2n1NC(c1c(Cl)cccc1Cl)N2c1cccc(Cl)c1 (stereo not given) | 22.2 µM | > 100 µM | 21.8 µM | > 100 µM | > 100 µM | 66.6 µM | 9.94 µM | 18.5 µM | > 100 µM | 9.92 µM | – | – | – | – | – | – | – | – | – | –
O=C(O)CC(C(=O)O)c1ccccc1[N+](=O)[O-] (stereo not given) | > 100 µM | > 100 µM | > 100 µM | > 100 µM | > 100 µM | > 100 µM | > 100 µM | > 100 µM | > 100 µM | > 100 µM | – | – | – | – | – | – | – | – | – | –
CCN(CC)C(=S)SS(=O)(=O)c1ccccc1C(=O)O | > 100 µM | > 42 µM | > 100 µM | > 100 µM | > 100 µM | > 100 µM | > 100 µM | > 100 µM | > 100 µM | > 100 µM | – | – | – | – | – | – | – | – | – | –
Cc1ccc(S(=O)ON2CCC(C(=O)O)(c3ccccc3)CC2)cc1 (stereo not given) | > 100 µM | > 100 µM | > 100 µM | > 100 µM | > 100 µM | > 100 µM | > 100 µM | > 100 µM | > 100 µM | > 100 µM | – | – | – | – | – | – | – | – | – | –
CN1CCCN2CCN(C)CCN(CC1)CC2 | > 100 µM | > 100 µM | > 100 µM | > 100 µM | > 100 µM | > 100 µM | > 100 µM | > 100 µM | > 100 µM | > 100 µM | – | – | – | – | – | – | – | – | – | –
O=C(c1ccccc1)c1ccc(C(c2c(O)c3ccccc3oc2=O)c2c(O)c3ccccc3oc2=O)cc1 | > 82.5 µM | > 100 µM | > 64.1 µM | 37.1 µM | > 100 µM | 63.3 µM | > 71.4 µM | > 69.2 µM | 64.7 µM | 62.4 µM | – | – | – | – | – | – | – | – | – | –
O=C(NN=C1CCN(Cc2ccccc2)CC1)C(O)(c1ccccc1)c1ccccc1 | > 100 µM | > 100 µM | > 100 µM | > 100 µM | > 100 µM | > 100 µM | > 100 µM | > 100 µM | > 100 µM | > 100 µM | – | – | – | – | – | – | – | – | – | –
CCOC(=O)c1c(C)n(Cc2ccccc2)c(=O)c2ccccc2c(=O)c2c(=O)ccc(=O)c1=2 | > 100 µM | > 100 µM | 41.5 µM | > 100 µM | 53.5 µM | > 100 µM | > 100 µM | 40.7 µM | > 100 µM | > 100 µM | – | – | – | – | – | – | – | – | – | –
CC(=O)OCC1OC(On2ccccc2=S)C(OC(C)=O)C(OC(C)=O)C1OC(C)=O (stereo not given) | > 100 µM | > 100 µM | > 100 µM | > 100 µM | > 100 µM | > 100 µM | > 100 µM | > 100 µM | > 100 µM | > 100 µM | – | – | – | – | – | – | – | – | – | –
CCOc1c2ccsc2c(OCC)c2ccsc12 | > 100 µM | 7.43 µM | 86.2 µM | > 100 µM | 23 µM | > 100 µM | > 100 µM | > 24.2 µM | > 100 µM | > 28.3 µM | – | – | – | – | – | – | – | – | – | –
COC(=O)c1ccccc1C1CN=NC12Cc1ccc3ccccc3c1C2=O (stereo not given) | > 100 µM | > 100 µM | > 100 µM | > 100 µM | > 100 µM | > 100 µM | > 100 µM | > 100 µM | > 100 µM | > 100 µM | – | – | – | – | – | – | – | – | – | –
COc1ccc2[nH]c(CCNC(=O)c3cc([N+](=O)[O-])cc([N+](=O)[O-])c3)cc2c1 | > 100 µM | > 100 µM | 93.8 µM | > 100 µM | > 100 µM | > 100 µM | > 100 µM | 56.9 µM | > 100 µM | 46.2 µM | – | – | – | – | – | – | – | – | – | –
Cc1cc2nc3n[nH]c(N)c3nc2cc1C | > 100 µM | > 100 µM | > 100 µM | > 100 µM | > 100 µM | > 100 µM | > 100 µM | > 100 µM | > 100 µM | 87.8 µM | – | – | – | – | – | – | – | – | – | –
COc1ccc(/C=C2\C=Cc3ccccc32)cc1OC | > 100 µM | 69.5 µM | 64.9 µM | > 100 µM | > 100 µM | > 100 µM | > 100 µM | > 100 µM | > 100 µM | 82.2 µM | – | – | – | – | – | – | – | – | – | –
Cc1ccc(Nc2nc(=S)[nH]c3[nH]ncc23)cc1 | > 100 µM | > 100 µM | > 100 µM | > 100 µM | > 100 µM | > 100 µM | > 100 µM | > 100 µM | > 100 µM | > 100 µM | – | – | – | – | – | – | – | – | – | –
CN(C)c1nc(N(C)C)nc(N(C)C)n1 | > 150 µM | > 148 µM | > 150 µM | > 150 µM | > 150 µM | > 150 µM | > 150 µM | > 150 µM | > 150 µM | 149 µM | – | – | – | – | – | – | – | – | – | –
CCc1ccc(-c2nnc(COc3ccc(-c4nc5ccc(C)cc5[nH]4)cc3OC)o2)cc1 | > 100 µM | 4.26 µM | 5.83 µM | > 100 µM | 4.25 µM | 5.84 µM | 4.87 µM | 3.29 µM | > 100 µM | 2.96 µM | 4.21 µM | 2.01 µM | 2.07 µM | 5.39 µM | 1.98 µM | 2.27 µM | 2.05 µM | 1.75 µM | 4.47 µM | 1.41 µM
COc1cc(NS(C)(=O)=O)ccc1NCc1cnc2ccc3[nH]c(C)ccc3c12 | > 100 µM | 34.9 µM | > 100 µM | > 100 µM | > 100 µM | > 100 µM | > 100 µM | 39.5 µM | > 100 µM | 78.4 µM | – | – | – | – | – | – | – | – | – | –
CC(C)(C)OC(=O)[N+](=N)C(=O)C1CCC(=O)N1C(=O)OCc1ccccc1 (stereo not given) | > 100 µM | > 100 µM | > 100 µM | > 100 µM | > 100 µM | > 100 µM | > 100 µM | > 100 µM | > 100 µM | > 100 µM | – | – | – | – | – | – | – | – | – | –
C/C(=N/NC(=S)Nc1ccccc1Cl)c1ccccn1 | 29.6 µM | < 0.0305 µM | 22.7 µM | 18.7 µM | 16 µM | 3.42 µM | 17.3 µM | 11.6 µM | 34.6 µM | 30.5 µM | – | – | – | – | – | – | – | – | – | –
CC1=C(/C=C/C(C)=C/C=C/C(C)=C/C(=O)OCC2OC(n3cc(F)c(=O)[nH]c3=O)CC2OC(=O)/C=C(C)/C=C/C=C(C)/C=C/C2=C(C)CCCC2(C)C)C(C)(C)CCC1 (stereo not given) | > 48.5 µM | > 41.9 µM | 37.1 µM | > 74.7 µM | 25.8 µM | > 48.3 µM | > 86.8 µM | > 100 µM | > 85.3 µM | > 100 µM | – | – | – | – | – | – | – | – | – | –
CCCCCCCCC[C@@H]1C[C@@H]2CCC3C(C(=O)OC)=C(C)NC(=N1)N32 (stereo not given in full) | 32.6 µM | 26.9 µM | 27.3 µM | 14 µM | 26.5 µM | 21.8 µM | 20 µM | 8.55 µM | 23.5 µM | 19.8 µM | – | – | – | – | – | – | – | – | – | –
CCOC(=O)c1cc2cc(N(C(C)=O)C(C)=O)ccc2s1 | > 100 µM | 39.2 µM | > 100 µM | > 100 µM | > 100 µM | > 100 µM | 58.7 µM | 42.7 µM | 80.6 µM | 39.9 µM | – | – | – | – | – | – | – | – | – | –
Cc1ccc2c(c1)SSSSS2 | 48.7 µM | 42.2 µM | 34.5 µM | 34 µM | 34.4 µM | 58.6 µM | 59.1 µM | 39 µM | 60.5 µM | 49.2 µM | – | – | – | – | – | – | – | – | – | –
CC(=O)N=C(N=Nc1c(O)[nH]c2ccc(C)cc12)NC(C)=O | > 100 µM | > 100 µM | > 100 µM | > 100 µM | > 100 µM | > 100 µM | > 100 µM | > 100 µM | > 100 µM | > 100 µM | – | – | – | – | – | – | – | – | – | –
CNc1ncnc(Sc2nc(N)nc3nc[nH]c23)c1[N+](=O)[O-] | > 49.2 µM | 6.7 µM | 16.4 µM | 25.3 µM | 12.2 µM | 19.4 µM | 20.6 µM | 8.06 µM | > 36.5 µM | 2.83 µM | – | – | – | – | – | – | – | – | – | –
Cc1c(N2C(=O)/C(=C/C=C/c3ccccc3)N=C2c2ccccc2)c(=O)n(-c2ccccc2)n1C | 69.8 µM | 35.7 µM | 51.3 µM | 80.3 µM | 52 µM | > 100 µM | 47.3 µM | 33.2 µM | 68.9 µM | 32.1 µM | – | – | – | – | – | – | – | – | – | –
Brc1cccc(/C=C/CN2CCN(CCOC(c3ccccc3)c3ccccc3)CC2)c1 | 31.6 µM | 27.9 µM | 17.8 µM | 31.3 µM | 27.6 µM | 27.1 µM | 29.1 µM | 24.6 µM | 39.6 µM | 20.2 µM | – | – | – | – | – | – | – | – | – | –
OC1(c2ccccc2)CC2CCC(C1)N2CCc1ccccc1 (stereo not given) | > 100 µM | > 100 µM | > 100 µM | > 100 µM | > 100 µM | > 100 µM | > 100 µM | > 100 µM | > 100 µM | > 100 µM | – | – | – | – | – | – | – | – | – | –
Cc1ccc(-c2c(C#N)c(-c3ccc(Cl)cc3)c(C#N)c(=O)n2NS(=O)(=O)c2ccccc2)cc1 | > 100 µM | > 100 µM | > 100 µM | > 100 µM | > 100 µM | > 100 µM | > 100 µM | > 100 µM | > 100 µM | > 100 µM | – | – | – | – | – | – | – | – | – | –
